According to patent publication US20070093520A1, “Method of treatment of diarrhea-predominant irritable bowel syndrome in a subject” (priority 2005, published 2007):

Tested on: diarrhea-predominant IBS subjects
Type: in vivo, human
Settings: TEAE incidence, 2 mg, Safety Population; PT
Protocol: The study was performed in approximately 150 study centers. Approximately 1600 eligible subjects were to be given cilansetron 2 mg TID. At Visit 1, pre-treatment assessments were conducted. […] Subjects were to return to the study site one month later for Visit 3 (Day 31) for their first interim assessment. […] All subjects who discontinued from the study were to have the same post-study assessments required at Visit 7 performed at their early termination visit. […]
Stool specimens were analyzed at every visit for occult blood. An independent GERB had been established to provide advice on GI AEs during the course of the study.
Adverse events were assessed at Baseline, at each clinic visit, and at the end of the study (Month 12 or the early termination visit). All AEs, which occurred during the study were followed up in accordance with good medical practice until resolved or judged no longer clinically significant, or if a condition was chronic, until fully characterized. Adverse events could occur in the specified follow-up period and, regardless of the interval since the last administration of the study medication, were treated in the same manner as an AE which occurred during the treatment with study medication. Each AE was evaluated for duration, severity, seriousness, and causal relationship to the investigational drug. The action taken and the outcome were also recorded.
Specifically, subjects who were lost to follow-up and had no post-Baseline contact with the site were excluded from the Safety population. The subjects who discontinued from the study due to lost to follow-up were identified based on the information collected on the study termination CRF page.
After the pretreatment assessment at Visit 1 (Days […] to −3), subjects were to return to the study site for a Baseline assessment and start the treatment at Visit 2 (Day 1).
For the by time-interval analyses of disposition, prevalence of AEs, and of markedly abnormal and predefined changes in laboratory values, vital signs, and ECGs, the following interval windows were used:
Adverse events that were already present prior to the first dose of cilansetron study medication but increased in severity afterwards were considered as treatment-emergent.
The 5% cutoff point was based on the incidence within higher level terms.
Subjects were counted at most once for each primary system organ class and preferred term. Serious AEs that resolved prior to receiving study medication or occurred more than 30 days after the last dose of study medication were not included in the incidence tables. A listing of all SAEs is presented; SAEs with onset prior to receiving study medication or more than 30 days after discontinuation of study medication were flagged. The listing presents lower level term and preferred term of the SAE, severity, action taken, outcome, and relationship of the SAE, start and stop date of the SAE, study day of onset of the SAE, age, race, and sex.

Cc1nccn1C[C@H]1CCc2c(c3cccc4c3n2CCC4)C1=O [cilansetron, (R)-(−)-4,5,6,8,9,10-hexahydro-10-[(2-methyl-1H-imidazol-1-yl)methyl]-11H-pyrido-[3,2,1-jk]-carbazol-11-one]
Cervical Disc Lesion: 1 (<1%) n (%)
Chest Discomfort: 1 (<1%) n (%)
Chest Pain: 12 (<1%) n (%)
Chromaturia: 1 (<1%) n (%)
Chronic Obstructive Airways Disease Exacerbated: 1 (<1%) n (%)
Clavicle Fracture: 1 (<1%) n (%)
Contusion: 2 (<1%) n (%)
Coronary Artery Disease NOS: 2 (<1%) n (%)
Cough: 26 (2%) n (%)
Cystocele*: 1 (<1%) n (%)
Dandruff: 1 (<1%) n (%)
Depressed Mood: 1 (<1%) n (%)
Depression: 21 (1%) n (%)
Depression Aggravated: 6 (<1%) n (%)
Dermatitis Allergic: 11 (<1%) n (%)
Dermatitis Contact: 1 (<1%) n (%)
Dermatitis NOS: 2 (<1%) n (%)
Diabetes Mellitus NOS: 3 (<1%) n (%)
Diabetes Mellitus Non-Insulin-Dependent: 1 (<1%) n (%)
Difficulty in Micturition: 2 (<1%) n (%)
Discoid Lupus Erythematosus: 1 (<1%) n (%)
Dissociation: 1 (<1%) n (%)
Distension NOS: 3 (<1%) n (%)
Dry Skin: 1 (<1%) n (%)
Dysmenorrhoea*: 2 (<1%) n (%)
Dyspnoea Exacerbated: 2 (<1%) n (%)
Dyspnoea NOS: 5 (<1%) n (%)
Dysuria: 5 (<1%) n (%)
Eczema: 3 (<1%) n (%)
Epidermal Cyst: 1 (<1%) n (%)
Epistaxis: 2 (<1%) n (%)
Erectile Dysfunction NOS*: 2 (<1%) n (%)
Erythema: 1 (<1%) n (%)
Extrasystoles NOS: 2 (<1%) n (%)
Face Injury: 2 (<1%) n (%)
Fall: 2 (<1%) n (%)
Fatigue: 20 (1%) n (%)
Fear of Falling: 1 (<1%) n (%)
Fibula Fracture: 1 (<1%) n (%)
Fluid Retention: 1 (<1%) n (%)
Food Intolerance NOS: 1 (<1%) n (%)
Foot Fracture: 2 (<1%) n (%)
Forearm Fracture: 1 (<1%) n (%)
Foreign Body in Eye: 1 (<1%) n (%)
Genital Discharge: 1 (<1%) n (%)
Genital Pain NOS: 1 (<1%) n (%)
Glycosuria: 1 (<1%) n (%)
Gout: 1 (<1%) n (%)
Groin Pain: 2 (<1%) n (%)
Gynaecomastia*: 1 (<1%) n (%)
Haematuria: 2 (<1%) n (%)
Hand Fracture: 1 (<1%) n (%)
Hangover: 1 (<1%) n (%)
Head Injury: 3 (<1%) n (%)
Heat Rash: 1 (<1%) n (%)
Hoarseness: 1 (<1%) n (%)
Hunger: 1 (<1%) n (%)
Hypercholesterolaemia: 8 (<1%) n (%)
Hypercholesterolaemia Aggravated: 1 (<1%) n (%)
Hyperglycaemia NOS: 4 (<1%) n (%)
Hyperkalaemia: 1 (<1%) n (%)
Hyperlipidaemia NOS: 3 (<1%) n (%)
Hypertriglyceridaemia: 8 (<1%) n (%)
Hypokalaemia: 3 (<1%) n (%)
Hyponatraemia Aggravated: 1 (<1%) n (%)
Hypotrichosis: 4 (<1%) n (%)
Influenza Like Illness: 8 (<1%) n (%)
Inguinal Mass: 1 (<1%) n (%)
Injury NOS: 1 (<1%) n (%)
Insomnia: 20 (1%) n (%)
Intervertebral Disc Herniation: 2 (<1%) n (%)
Joint Dislocation: 1 (<1%) n (%)
Joint Sprain: 3 (<1%) n (%)
Joint Stiffness: 2 (<1%) n (%)
Joint Swelling: 2 (<1%) n (%)
Laceration: 2 (<1%) n (%)
Laryngitis NOS: 3 (<1%) n (%)
Lethargy: 1 (<1%) n (%)
Leukocyturia: 2 (<1%) n (%)
Libido Decreased: 1 (<1%) n (%)
Ligament Injury NOS: 4 (<1%) n (%)
Limb Injury NOS: 8 (<1%) n (%)
Localised Osteoarthritis: 2 (<1%) n (%)
Loin Pain: 1 (<1%) n (%)
Loss of Libido: 1 (<1%) n (%)
Major Depressive Disorder NOS: 1 (<1%) n (%)
Malaise: 2 (<1%) n (%)
Maxillary Sinusitis: 5 (<1%) n (%)
Menopausal Symptoms*: 1 (<1%) n (%)
Menorrhagia*: 1 (<1%) n (%)
Menses Delayed*: 1 (<1%) n (%)
Mental Disorder NOS: 1 (<1%) n (%)
Monoarthritis: 2 (<1%) n (%)
Mood Alteration NOS: 1 (<1%) n (%)
Mood Swings: 2 (<1%) n (%)
Muscle Cramps: 6 (<1%) n (%)
Muscle Injury NOS: 2 (<1%) n (%)
Muscle Spasms: 2 (<1%) n (%)
Muscle Strain: 7 (<1%) n (%)
Muscle Tightness: 1 (<1%) n (%)
Muscle Twitching: 1 (<1%) n (%)
Musculoskeletal Chest Pain: 2 (<1%) n (%)
Musculoskeletal Discomfort: 1 (<1%) n (%)
Musculoskeletal Pain: 1 (<1%) n (%)
Myalgia: 11 (<1%) n (%)
Myocardial Ischaemia: 4 (<1%) n (%)
Nail Discolouration: 1 (<1%) n (%)
Nail Disorder NOS: 1 (<1%) n (%)
Nasal Congestion: 2 (<1%) n (%)
Nasal Ulcer: 1 (<1%) n (%)
Neck Injury NOS: 1 (<1%) n (%)
Neck Pain: 8 (<1%) n (%)
Neck Stiffness: 1 (<1%) n (%)
